The IC50 is the concentration needed to halve the response being measured.

This experiment deals with T1, human S1P1 receptors (Homo sapiens, UniProt P21453).
T1 construct: host or cells: HEK293
T1 sequence (P21453 whole entry): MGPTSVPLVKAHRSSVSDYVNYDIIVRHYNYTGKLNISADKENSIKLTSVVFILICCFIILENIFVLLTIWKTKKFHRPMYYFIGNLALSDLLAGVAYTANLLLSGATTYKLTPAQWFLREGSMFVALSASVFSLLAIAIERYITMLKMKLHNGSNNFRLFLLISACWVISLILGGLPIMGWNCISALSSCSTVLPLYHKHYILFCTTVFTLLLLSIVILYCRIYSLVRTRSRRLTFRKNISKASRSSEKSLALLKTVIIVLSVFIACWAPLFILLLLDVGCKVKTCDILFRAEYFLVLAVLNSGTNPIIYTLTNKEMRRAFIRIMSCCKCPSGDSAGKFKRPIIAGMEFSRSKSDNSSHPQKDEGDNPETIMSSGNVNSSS
The experiment can be described thus: S1P1R antagonist assay (fluorescent membrane potential dye, cAMP readout). In kind it is cell-based. The settings on record: HEK293 cells expressing human S1P1 receptors and CNG channel; 500 nM NECA; S1P1R agonist 10 nM; 90 minutes; read-out: EC50 or IC50 value.
Turning to `COc1cccc(N2CCN(CC(=O)N[C@@H](COCc3ccccc3)C(=O)Nc3ccc(Oc4ccc(F)cc4)cc3)CC2)c1` [Compound 42, (S)-3-(benzyloxy)-N-(4-(4-fluorophenoxy)phenyl)-2-(2-(4-(3-methoxyphenyl)piperazin-1-yl)acetamido)propanamide], the concentration for half-maximal inhibition (IC50) is over 1000 nM. On to `COc1cc(OC)cc(C(=O)NC(COCc2ccccc2)C(=O)Nc2ccc(Oc3ccccc3)cc2)c1` (centres unmarked) [Compound 316, 3,5-bis(methyloxy)-N-(2-oxo-1-{[(phenylmethyl)oxy]methyl}-2-{[4-(phenyloxy)phenyl]amino}ethyl)benzamide], for which the IC50 is over 1000 nM. Consider `O=C(CCl)N[C@@H](COCc1ccccc1)C(=O)Nc1ccc(Oc2ccc(F)cc2)cc1` [Compound 136, (S)-3-(benzyloxy)-2-(2-chloroacetamido)-N-(4-(4-fluorophenoxy)phenyl)propanamide], for which the IC50 is at most 300 nM. For the molecule `CC1CCCN1CC(=O)N[C@@H](COCc1ccccc1)C(=O)Nc1ccc(Oc2ccc(F)cc2)cc1` (stereo partly drawn) [Compound 63, (2S)-3-(benzyloxy)-N-(4-(4-fluorophenoxy)phenyl)-2-(2-(2-methylpyrrolidin-1-yl)acetamido)propanamide], the IC50 is over 1000 nM.

As to `O=C(Cc1cnc[nH]1)N[C@@H](COCc1ccccc1)C(=O)Nc1ccc(Oc2ccc(Cl)cc2)c(Cl)c1` [Compound 154, (S)-2-(2-(1H-imidazol-4-yl)acetamido)-3-(benzyloxy)-N-(3-chloro-4-(4-chlorophenoxy)phenyl)propanamide], the half-maximal inhibitory concentration (IC50) was at most 300 nM. As for `O=C(Cc1ccc2c(c1)OCO2)NC(COCc1ccccc1)C(=O)Nc1ccc(Oc2ccccc2)cc1` (centres unmarked) [Compound 328, N-(2-oxo-1-{[(phenylmethyl)oxy]methyl}-2-{[4-(phenyloxy)phenyl]amino}ethyl)-1,3-benzodioxol-5-ylacetamide], the figure is over 1000 nM; as for `Cc1ccc(C(=O)NC(COCc2ccccc2)C(=O)Nc2ccc(Oc3ccccc3)cc2)cc1C` (centres unmarked) [Compound 279, 3,4-dimethyl-N-(2-oxo-1-{[(phenylmethyl)oxy]methyl}-2-{[4-(phenyloxy)phenyl]amino}ethyl)benzamide], over 1000 nM; as for `O=C(Nc1ccc(Oc2ccccc2)cc1)C(COCc1ccccc1)NC(=O)C1(c2c(F)cccc2Cl)CCCC1` (centres unmarked) [Compound 329, 1-(2-chloro-6-fluorophenyl)-N-(2-oxo-1-{[(phenylmethyl)oxy]methyl}-2-{[4-(phenyloxy)phenyl]amino}ethyl)cyclopentanecarboxamide], over 1000 nM. As for `CN1CCCC1CC1CCCCN1CC(=O)N[C@@H](COCc1ccccc1)C(=O)Nc1ccc(Oc2ccc(F)cc2)cc1` (stereo in doubt) [Compound 113, (2S)-3-(benzyloxy)-N-(4-(4-fluorophenoxy)phenyl)-2-(2-(2-(((S)-1-methylpyrrolidin-2-yl)methyl)piperidin-1-yl)acetamido)propanamide], the figure is over 1000 nM; as for `Cc1nc(CC(=O)N[C@@H](COCc2ccccc2)C(=O)Nc2ccc(Oc3ccc(F)cc3)cc2)c[nH]1` [Compound 162, (S)-3-(benzyloxy)-N-(4-(4-fluorophenoxy)phenyl)-2-(2-(2-methyl-1H-imidazol-4-yl)acetamido)propanamide], at most 300 nM; as for `CCCCC(C)C(=O)NC(COCc1ccccc1)C(=O)Nc1ccc(Oc2ccccc2)cc1` (centres unmarked) [Compound 346, 2-methyl-N-(2-oxo-1-{[(phenylmethyl)oxy]methyl}-2-{[4-(phenyloxy)phenyl]amino}ethyl)hexanamide], 300 to 1000 nM. As for `O=C(CSc1ncccn1)NC(COCc1ccccc1)C(=O)Nc1ccc(Oc2ccccc2)cc1` (centres unmarked) [Compound 331, N-(2-oxo-1-{[(phenylmethyl)oxy]methyl}-2-{[4-(phenyloxy)phenyl]amino}ethyl)-2-(pyrimidin-2-ylthio)acetamide], the half-inhibitory concentration (IC50) is over 1000 nM. The value for `O=C(Cn1cncn1)N[C@@H](COCc1ccc(F)cc1)C(=O)Nc1ccc(Oc2ccc(F)cc2)cc1` [Compound 135, (S)-2-(2-(1H-1,2,4-triazol-1-yl)acetamido)-3-(4-fluorobenzyloxy)-N-(4-(4-fluorophenoxy)phenyl)propanamide] was at most 300 nM; that for `Cc1ccccc1C[C@@H]1C[C@@H](C(=O)Nc2ccc(Oc3ccc(F)cc3)cc2)N(C(=O)Cn2cncn2)C1` [Compound 55, (2S,4R)-1-(2-(1H-1,2,4-triazol-1-yl)acetyl)-N-(4-(4-fluorophenoxy)phenyl)-4-(2-methylbenzyl)pyrrolidine-2-carboxamide] was at most 300 nM. As for `O=C(Cn1cncn1)N[C@@H](COCc1ccccc1)C(=O)Nc1ccc(Oc2ccccc2)cc1` [Compound 146, (S)-2-(2-(1H-1,2,4-triazol-1-yl)acetamido)-3-(benzyloxy)-N-(4-phenoxyphenyl)propanamide], the IC50 is at most 300 nM. Turning to `CCC(C)CC(=O)NC(COCc1ccccc1)C(=O)Nc1ccc(Oc2ccccc2)cc1` (centres unmarked) [Compound 385, 3-methyl-N-(2-oxo-1-{[(phenylmethyl)oxy]methyl}-2-{[4-(phenyloxy)phenyl]amino}ethyl)pentanamide], the IC50 was over 1000 nM.

Regarding `CSCC(=O)NC(COCc1ccccc1)C(=O)Nc1ccc(Oc2ccccc2)cc1` (centres unmarked) [Compound 307, N-(2-oxo-1-{[(phenylmethyl)oxy]methyl}-2-{[4-(phenyloxy)phenyl]amino}ethyl)-2-(methylthio)acetamide], the IC50 is at most 300 nM.

With `COc1ccc(CCC(=O)N[C@@H](COCc2ccccc2)C(=O)Nc2ccc(Oc3ccc(F)cc3)cc2)cc1Cl` [Compound 81, (S)-3-(benzyloxy)-2-(3-(3-chloro-4-methoxyphenyl)propanamido)-N-(4-(4-fluorophenoxy)phenyl)propanamide], the IC50 is over 1000 nM. Regarding `CN(C)C(=O)CCC(=O)N1C[C@H](Cc2ccccc2)C[C@H]1C(=O)Nc1ccc(Oc2ccc(F)cc2)cc1` [Compound 89, (2S,4R)-4-benzyl-1-(4-(dimethylamino)-4-oxobutanoyl)-N-(4-(4-fluorophenoxy)phenyl)pyrrolidine-2-carboxamide], the IC50 is at most 300 nM.

As to `O=C(Cn1cncn1)N[C@@H](CCCNC(=O)OCc1ccccc1)C(=O)Nc1ccc(Oc2ccc(F)cc2)cc1` [Compound 165, (S)-benzyl 4-(2-(1H-1,2,4-triazol-1-yl)acetamido)-5-(4-(4-fluorophenoxy)phenylamino)-5-oxopentylcarbamate], the IC50 was at most 300 nM.

For the molecule `O=C(CCC1CCCCC1)NC(COCc1ccccc1)C(=O)Nc1ccc(Oc2ccccc2)cc1` (centres unmarked) [Compound 317, N-(2-oxo-1-{[(phenylmethyl)oxy]methyl}-2-{[4-(phenyloxy)phenyl]amino}ethyl)-3-cyclohexylpropanamide], the IC50 is over 1000 nM. Take `O=C(CN1CCNCC1)N[C@@H](COCc1ccccc1)C(=O)Nc1ccc(Oc2ccc(F)cc2)cc1` [Compound 205, (S)-3-(benzyloxy)-N-(4-(4-fluorophenoxy)phenyl)-2-(2-(piperazin-1-yl)acetamido)propanamide]: the IC50 is at most 300 nM. Regarding `O=C(CCCc1ccccc1)NC(COCc1ccccc1)C(=O)Nc1ccc(Oc2ccccc2)cc1` (centres unmarked) [Compound 300, N-(2-oxo-1-{[(phenylmethyl)oxy]methyl}-2-{[4-(phenyloxy)phenyl]amino}ethyl)-4-phenylbutanamide], the IC50 was over 1000 nM. As for `O=C(Cc1cnc[nH]1)N[C@@H](COCc1ccccc1)C(=O)Nc1ccc(Oc2ccccc2)cc1` [Compound 143, (S)-2-(2-(1H-imidazol-5-yl)acetamido)-3-benzyloxy-N-(4-phenoxyphenyl)propanamide], the IC50 is at most 300 nM. As for `O=C(NC(COCc1ccccc1)C(=O)Nc1ccc(Oc2ccccc2)cc1)c1ccsc1` (centres unmarked) [Compound 389, N-(2-oxo-1-{[(phenylmethyl)oxy]methyl}-2-{[4-(phenyloxy)phenyl]amino}ethyl)thiophene-3-carboxamide], the figure is 300 to 1000 nM; as for `CS(=O)(=O)CC(=O)NC(COCc1ccccc1)C(=O)Nc1ccc(Oc2ccccc2)cc1` (centres unmarked) [Compound 19, 3-(benzyloxy)-2-(2-(methylsulfonyl)acetamido)-N-(4-phenoxyphenyl)propanamide], over 1000 nM; as for `O=C(Nc1ccc(Oc2ccc(F)cc2)cc1)[C@@H]1C[C@@H](Cc2ccccc2)CN1C(=O)CO` [Compound 120, (2S,4R)-4-benzyl-N-(4-(4-fluorophenoxy)phenyl)-1-(2-hydroxyacetyl)pyrrolidine-2-carboxamide], at most 300 nM. As for `COc1ccc(OC)c(CC(=O)NC(COCc2ccccc2)C(=O)Nc2ccc(Oc3ccccc3)cc2)c1` (centres unmarked) [Compound 280, N-(2-oxo-1-{[(phenylmethyl)oxy]methyl}-2-{[4-(phenyloxy)phenyl]amino}ethyl)-2,5-dimethoxyphenylacetamide], the IC50 is over 1000 nM.

Regarding `COC(=O)CCC(=O)N1C[C@H](Cc2ccccc2)C[C@H]1C(=O)Nc1ccc(Oc2ccc(F)cc2)cc1` [Compound 125, methyl 4-((2S,4R)-4-benzyl-2-(4-(4-fluorophenoxy)phenylcarbamoyl)pyrrolidin-1-yl)-4-oxobutanoate], the IC50 is at most 300 nM. Take `O=C(NC(COCc1ccccc1)C(=O)Nc1ccc(Oc2ccccc2)cc1)C1CCN(c2nccc(C(F)(F)F)n2)CC1` (centres unmarked) [Compound 302, N-(2-oxo-1-{[(phenylmethyl)oxy]methyl}-2-{[4-(phenyloxy)phenyl]amino}ethyl)-1-[4-(trifluoromethyl)pyrimidin-2-yl]piperidine-4-carboxamide]: the IC50 was over 1000 nM. For the molecule `C#CCCC(=O)NC(COCc1ccccc1)C(=O)Nc1ccc(Oc2ccccc2)cc1` (centres unmarked) [Compound 344, N-(2-oxo-1-{[(phenylmethyl)oxy]methyl}-2-{[4-(phenyloxy)phenyl]amino}ethyl)pent-4-ynamide], the IC50 is over 1000 nM. Take `O=C(Nc1ccc(Oc2ccc(F)cc2)cc1)[C@@H]1C[C@@H](c2ccccc2)CN1C(=O)Cc1cnc[nH]1` [Compound 251, (2S,4S)-1-(2-(1H-imidazol-5-yl)acetyl)-N-(4-(4-fluorophenoxy)phenyl)-4-phenylpyrrolidine-2-carboxamide]: the half-maximal inhibitory concentration (IC50) is at most 300 nM.

Values taken from patent US8791102B2, “Acetanilide sphingosine-1-phosphate receptor antagonists” (Exelixis, Inc., priority 2008, dated 2014).
